From patent US10617734B2, “STAT3 and ERK signal pathway inhibitor comprising mogrosides and analogs thereof” (BEIJING UNIVERSITY OF AGRICULTURE, priority 2014, dated 2020) come the findings set out here.

For experiment [1], the system named is phosphorylated STAT3 (P-STAT3, Tyr705). Nature of the experiment: Western Blotting of phosphorylated STAT3 in U937 cells. Particulars: 10 μmol/L, 24 hours. The experiment is classed as cell-based. How it is done:
(§1) The inhibition of the STAT3 and ERK signal pathways achieved by Mogroside I E1, Mogroside II A2 and mogrol was detected by Western Blotting, specifically:
Group 1: histiocytic lymphoma U937 cells (1×10^6 cells/well) were inoculated into a 6-well culture plate for staying overnight, and 0 and 10 μmol/L of Mogroside I E1, Mogroside II A2 and mogrol were added respectively, and the culture was continued for 24 hours;
(§2) After the termination of the cell culture, the culture solution was removed, and the residue was washed with PBS (0.01 mol/L, pH 7.4), and then a cell lysis solution containing protease inhibitors was added at an amount of 50 μl/well, and the mixture was placed in an ice bath for lysis at 4° C. for 30 min and then centrifuged at 14000 r/min for 10 min, and then total proteins were obtained from the supernatant;
(§3) The protein concentrations were measured with bovine serum albumin (BSA) as the standard. 50 μg of the total proteins was separated by polyacrylamide gel electrophoresis with 12% […], electrophoretically transferred to a PVDF membrane (polyvinylidene fluoride membrane), and blocked for 1 h by 5% of skim milk (containing 0.1% of Tween 20), and then antibodies p-STAT3 (Tyr705) and p-Erk1/2 as well as β-actin were added, and the primary antibody was incubated at 4° C. overnight (β-actin was used as reference in loading amount); the membrane was washed for 3 times with TBS-T, 5 min each time; secondary antibody marked by horseradish peroxidase (HRP) was added for incubation at room temperature for 1 h, the membrane was washed for 3 times with a wash solution (TBS-T), 10 min each time, and then ECL was added for incubation in dark for 5 min, and subsequently, a fluorescence imaging analyzer was used for image development and scanning analysis, and the results of Western Blotting detection are shown in FIGS. 4 to 6.
For orientation: Immunoblotting shows a protein as a band on a membrane.

The test system is the same in experiment [2]. Nature of the experiment: Western Blotting of phosphorylated STAT3 in A875 cells. The experiment is classed as cell-based, human. Particulars: melanoma A875 cells, 10 μmol/L, 24 hours. How it is done:
as §1
(§4) Group 2: human melanoma A875 cells (1×10^6 cells/well) were inoculated into a 6-well culture plate for staying overnight, and 0 and 10 μmol/L of Mogroside I E1, Mogroside II A2 and mogrol were added respectively, and the culture was continued for 24 hours;
as §2, §3

Experiment [3] concerns phosphorylated ERK1/2 (P-ERK1/2). Nature of the experiment: Western Blotting of phosphorylated ERK1/2 in A875 cells. The following applies: melanoma A875 cells, 10 μmol/L, 24 hours. The experiment is classed as cell-based, human. How it is done:
as §1, §4, §2, §3

Experiment [4] concerns phosphorylated STAT3 (P-STAT3, Tyr705). Nature of the experiment: Western Blotting of phosphorylated STAT3 in K562 cells. The experiment is classed as cell-based, human. Particulars: leukemia cells K562, 10 μmol/L, 24 hours. How it is done: as §1
Group 3: leukemia cells K562 (1×10^6 cells/well) were inoculated into a 6-well culture plate for staying overnight, and 0 and 10 μmol/L of Mogroside I E1 Mogroside II A2 and mogrol were added respectively, and the culture was continued for 24 hours;
as §2, §3

Experiment [5] relates to anti-apoptotic protein Bcl-2. In words: Western Blotting of Bcl-2 in A875 cells. The experiment is classed as cell-based. The following applies: human melanoma A875 cells, 10 μmol/L, 24 h. How it is done: (§5) The STAT3 and ERK signal pathways can regulate cyclins and apoptosis genes, and in order to verify the effects of […] and mogrol, the expression status of downstream genes of STAT3 and ERK was detected, wherein the influences of the three mogrosides and analogs thereof, i.e. Mogrol I E1, Mogrol II A2 and mogrol, on Bcl-2 and P21 proteins in the histiocytic lymphoma U937 cells, human melanoma A875 cells and leukemia cells K562 were determined, respectively.
(§6) The regulation of Bcl-2 and P21 proteins by mogrosides and analog thereof to the was detected by Western Blotting, specifically: histiocytic lymphoma U937 cells, human melanoma A875 cells and leukemia cells K562 (1×10^6 cells/well) were inoculated into a 6-well culture plate overnight, and 0 and 10 μmol/L of the mogrosides and analogs thereof were added respectively, and kept cultured for 24 h. […]
(§7) The protein concentration was measured with bovine serum albumin (BSA) as the standard. 50 μg of the total proteins were separated by polyacrylamide gel electrophoresis with 12% SDS, and electrophoretically transferred to a PVDF membrane (polyvinylidene fluoride membrane), and blocked for 1 h by 5% of skim milk (containing 0.1% of Tween 20), and then antibodies P21, Bcl-2 and β-actin were added, wherein the primary antibody was incubated at 4° C. overnight (β-actin was used as reference loading amount); the membrane was washed for 3 times with TBS-T, 5 min each time; secondary antibody marked by horseradish peroxidase (HRP) was added for incubation at room temperature for 1 h, the membrane was washed with rinse solution (TBS-T) for 3 times, 10 min each time, and then ECL was added for incubation in dark for 5 min, and subsequently, a fluorescence imaging analyzer was used for image development and scanning analysis.

The test system of experiment [6] is anti-apoptotic protein Bcl-2. Nature of the experiment: Western Blotting of Bcl-2 in K562 cells. The experiment is classed as cell-based, human. The following applies: leukemia cells K562, 10 μmol/L, 24 h. How it is done:
as §5, §6, §7

Experiment [7] deals with leukemia cells K562. Nature of the experiment: Cell cycle distribution, PI staining, flow cytometer. The following applies: leukemia cells K562, 10 μmol/L, 24 h. The experiment is classed as cell-based, human. An excerpt: The influences of Mogroside I E1, Mogroside II A2 and mogrol on the cell cycle distribution of the histiocytic lymphoma U937 cells, the human melanoma A875 cells and the leukemia cells K562.
The cell cycle arrest achieved by drugs is an important approach to the inhibition of cancer cell proliferation.
In general terms: Flow cytometry measures light scatter and fluorescence of single cells or particles in a stream.

Another experiment has as its system lymphoma U937 cells. In words: Cell apoptosis, Annexin V-FITC/PI, flow cytometer. The experiment is classed as cell-based. The following applies: 10 μmol/L, 24 h. How it is done:
(§8) Lymphoma U937 cells, human melanoma A875 cells and leukemia cells K562 in logarithmic growth phase were selected, and after the respective culture with 0 and 10 μmol/L of the mogrosides and analogs thereof (i.e. Mogroside I E1, Mogroside II A2 and mogrol) for 24 h, cells were collected and washed twice with 200 μl of cold PBS, and then the cells were collected again; 100 μl of binding buffer was added for re-suspending the cells, and after the addition of 2 μl of Annexin V-FITC and well mixing, the resulting mixture was placed in dark at room temperature for 10 min, and then 5 μl of propidium iodide (PI) was added and then well mixed; the mixture was placed in dark at room temperature for 10 min, and detected by flow cytometer, and the results are shown in FIGS. 13-15.

Experiment [8] relates to human melanoma A875 cells. In words: Cell apoptosis, Annexin V-FITC/PI, flow cytometer. The experiment is classed as cell-based. Particulars: 10 μmol/L, 24 h. On the procedure: Mogroside I E1, Mogroside II A2 and mogrol) for 24 h, cells were collected and washed twice with 200 μl of cold PBS, and then the cells were collected again; 100 μl of binding buffer was added for re-suspending the cells, and after the addition of 2 μl of Annexin V-FITC and well mixing, the resulting mixture was placed in dark at room temperature for 10 min, and then 5 μl of propidium iodide (PI) was added and then well mixed; the mixture was placed in dark at room temperature for 10 min, and detected by flow cytometer, and the results are shown in FIGS. 13-15.

Experiment [9] concerns leukemia cells K562. Nature of the experiment: Cell apoptosis, Annexin V-FITC/PI, flow cytometer. The format is cell-based, human. The following applies: leukemia cells K562, 10 μmol/L, 24 h. On the procedure: as §8

As to `C[C@H](CC[C@@H](O)C(C)(C)O)[C@H]1CC[C@@]2(C)[C@@H]3CC=C4[C@@H](CC[C@H](O)C4(C)C)[C@]3(C)[C@H](O)C[C@]12C` [mogrol], the “expression level of phosphorylated STAT3 (P-STAT3)” value in [1], in [2] and in [4] was “significantly decreased” each time. Further, the “expression level of phosphorylated ERK1/2 (P-ERK1/2)” value in experiment [3] was “significantly decreased”. Further, the “expression of anti-apoptotic protein Bcl-2” value in [5] and in experiment [6] was “significantly down-regulated” throughout. For the same compound, the “cell cycle distribution (cell cycle arrest)” value with leukemia cells K562 [7] was “arrested”. Further, the cell apoptosis entry (with lymphoma U937 cells; in experiment [8]; with leukemia cells K562 [9]) was “induce the apoptosis” throughout.
